The results in this text go back to PubChem BioAssay (NCI).

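Exposure lasted 48 hours, with cells grown in 96-well plates and compounds tested at five concentrations. GI50 marks 50% less growth. The concentration for full growth arrest is given as TGI.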 A value given as a limit tells only on which side of the number the result lay.

Test systems include COLO 205 colon; EKVX NSCLC; KM12 colon; LOX IMVI melanoma; MDA-MB-231 breast; MDA-MB-435; SF-268 CNS; SNB-19 CNS; SR leukemia; UO-31 renal.
Assay in all cases: DTP human tumour cell line panel, 48 h

Take `CCN(CC)CCCC(C)NC(=S)N/N=C(\C)c1ccccn1` (stereo not drawn): the GI50 in the experiment on COLO 205 colon was 3.25 µM; with EKVX NSCLC, 6.71 µM; in the experiment with KM12 colon, 4.02 µM; in the experiment on LOX IMVI melanoma, 2.63 µM; with MDA-MB-231 breast it was 0.475 µM; with MDA-MB-435, 5.17 µM. Also, the GI50 in the experiment with SF-268 CNS is 3.19 µM; with SNB-19 CNS, 7.83 µM; in the experiment on SR leukemia it was 2.45 µM; in the experiment on UO-31 renal it was 2.51 µM. In addition, the total growth inhibition concentration (TGI) in the experiment on COLO 205 colon, with EKVX NSCLC, with KM12 colon, in the experiment on LOX IMVI melanoma, in the experiment on MDA-MB-231 breast and in the experiment on MDA-MB-435 was greater than 100 µM each time. The total growth inhibition concentration (TGI) in the experiment with SF-268 CNS, in the experiment with SNB-19 CNS, with SR leukemia and in the experiment on UO-31 renal was greater than 100 µM throughout.
Take `N#Cc1ccccc1C#C/C=C\C#Cc1cnccn1`: the GI50 with COLO 205 colon was 19.7 µM; in the experiment with EKVX NSCLC it was 44.1 µM; in the experiment on KM12 colon it was 3.49 µM; in the experiment on LOX IMVI melanoma, greater than 21.1 µM; in the experiment with MDA-MB-231 breast, 11.1 µM; with MDA-MB-435, 3.14 µM. Besides, the GI50 in the experiment with SF-268 CNS was 48.9 µM; with SNB-19 CNS it was 30.2 µM; in the experiment with SR leukemia, greater than 20.7 µM; with UO-31 renal, 44 µM. Also, the TGI with COLO 205 colon is greater than 57.5 µM; with EKVX NSCLC it was greater than 100 µM; with KM12 colon, greater than 31.5 µM; in the experiment on LOX IMVI melanoma it was greater than 60.9 µM; in the experiment with MDA-MB-231 breast, 44.1 µM; in the experiment on SF-268 CNS, greater than 100 µM. Moreover, the values for the concentration for total growth inhibition (TGI) in the experiment with SNB-19 CNS, in the experiment on SR leukemia and with UO-31 renal were greater than 89.4 µM, greater than 79.7 µM and greater than 100 µM, respectively.
In the case of `Nc1cc2[nH]c(=O)c3cc(Cl)ccc3c2cc1Cl`, the TGI in the experiment with COLO 205 colon was greater than 100 µM; in the experiment on EKVX NSCLC, greater than 100 µM; in the experiment with KM12 colon, greater than 100 µM; in the experiment on LOX IMVI melanoma, 53.6 µM; in the experiment with MDA-MB-231 breast it was 68.6 µM; with MDA-MB-435 it was 52.1 µM. Moreover, the TGI with SF-268 CNS was 45.4 µM; in the experiment on SNB-19 CNS, 37.2 µM; in the experiment with SR leukemia, greater than 100 µM; in the experiment on UO-31 renal, 30.5 µM.
In the case of `CCCC1C2=C(C(=O)OC2=O)C2C(CC)CC3=C(C(=O)OC3=O)C12` (stereo not drawn), the TGI with COLO 205 colon, in the experiment with EKVX NSCLC, with KM12 colon, in the experiment with LOX IMVI melanoma, with MDA-MB-231 breast and in the experiment on MDA-MB-435 was greater than 100 µM throughout. Further, the concentration for total growth inhibition (TGI) in the experiment on SF-268 CNS, with SNB-19 CNS, in the experiment on SR leukemia and in the experiment on UO-31 renal was greater than 100 µM in each case.
Turning to `COc1ccc(/C=C2\CC(C)CC3C2=NN(C(C)=O)C3c2ccc(OC)c(OC)c2)cc1OC` (stereo not drawn), the GI50 is 11.1 µM in the experiment with COLO 205 colon; 19.2 µM in the experiment on EKVX NSCLC; 19.7 µM in the experiment with KM12 colon; 17.7 µM in the experiment with LOX IMVI melanoma; 24.5 µM with MDA-MB-231 breast; 18.6 µM in the experiment on MDA-MB-435. Also, the GI50 is 14.6 µM with SF-268 CNS, 17.7 µM in the experiment on SNB-19 CNS, 22.9 µM in the experiment on SR leukemia and 13.3 µM with UO-31 renal. Moreover, the total growth inhibition concentration (TGI) in the experiment with COLO 205 colon is 27.7 µM; with EKVX NSCLC, 70.1 µM; with KM12 colon, 42.1 µM; in the experiment on LOX IMVI melanoma, 34.8 µM; in the experiment with MDA-MB-231 breast, greater than 100 µM; in the experiment with MDA-MB-435, 39.4 µM. For the same compound, the total growth inhibition concentration (TGI) in the experiment on SF-268 CNS is 31.8 µM; in the experiment with SNB-19 CNS, 39.4 µM; in the experiment on SR leukemia, 74.4 µM; with UO-31 renal, 29.6 µM.
With `COc1cc(C2C3=C(COC3=O)N(CCO)c3cc4c(cc32)CCC4)cc(OC)c1OC` (stereo not drawn), the concentration for 50% growth inhibition (GI50) in the experiment with COLO 205 colon was 0.0651 µM; with EKVX NSCLC it was 1.12 µM; in the experiment with KM12 colon, 0.0707 µM; in the experiment on LOX IMVI melanoma, 0.166 µM; in the experiment with MDA-MB-231 breast, 0.137 µM; in the experiment with MDA-MB-435 it was 0.0279 µM. In addition, the GI50 in the experiment on SF-268 CNS is 0.0934 µM; with SNB-19 CNS it was 0.0946 µM; in the experiment on SR leukemia it was 0.0692 µM; in the experiment on UO-31 renal it was 0.228 µM. The TGI with COLO 205 colon is 0.148 µM; in the experiment with EKVX NSCLC, greater than 32.5 µM; in the experiment on KM12 colon, 0.29 µM; with LOX IMVI melanoma it was greater than 32.5 µM; with MDA-MB-231 breast, greater than 32.5 µM; in the experiment on MDA-MB-435, 0.187 µM. Besides, the TGI is 6.38 µM with SNB-19 CNS, greater than 32.5 µM with SR leukemia and greater than 17 µM with UO-31 renal.
In the case of `CCOC(=O)C(Cc1ccc(N(CCCl)CCCl)cc1)NC(=O)C(CC(C)C)NC(C)=O` (stereo not drawn), the GI50 in the experiment on COLO 205 colon was 1.25 µM; in the experiment on EKVX NSCLC, 5.95 µM; in the experiment with KM12 colon, 4.35 µM; with LOX IMVI melanoma, 0.296 µM; in the experiment on MDA-MB-231 breast, 2 µM; with MDA-MB-435, 1.43 µM. Besides, the GI50 was 1.09 µM in the experiment on SF-268 CNS, 3.55 µM with SNB-19 CNS, 0.0344 µM in the experiment on SR leukemia and 0.512 µM in the experiment on UO-31 renal. Moreover, the total growth inhibition concentration (TGI) in the experiment with COLO 205 colon worked out at 2.7 µM; with EKVX NSCLC it was 19.7 µM; in the experiment with KM12 colon it was 18.8 µM; with LOX IMVI melanoma, 2.23 µM; in the experiment on MDA-MB-231 breast, 4.94 µM; with MDA-MB-435, 3.25 µM. For the same compound, the concentration for total growth inhibition (TGI) in the experiment with SF-268 CNS was 5.51 µM; with SNB-19 CNS it was 16.7 µM; in the experiment on SR leukemia, 6.89 µM; in the experiment on UO-31 renal, 2.91 µM.
With `O=C(CN1C(=O)c2ccccc2C1=O)NC1(C(=O)O)CCCC1`, the TGI in the experiment on COLO 205 colon, with EKVX NSCLC, with KM12 colon, in the experiment with LOX IMVI melanoma, in the experiment with MDA-MB-231 breast and in the experiment on MDA-MB-435 was greater than 100 µM each time. Further, the concentration for total growth inhibition (TGI) in the experiment on SF-268 CNS, in the experiment with SNB-19 CNS, in the experiment on SR leukemia and in the experiment with UO-31 renal was greater than 100 µM throughout.
